Data taken from the NIST ThermoML archive (doi:10.1016/j.jct.2016.11.009).

Test: xn = mol fraction of the nth substance listed
Settings: Fluid (supercritical or subcritical phases), Buoyancy - hydrostatic balance with magnetic suspension - one sinker

C [methane] + O=C=O
Settings | mass density [kg/m3]
305.24 K, 17994 kPa, x2 = 0.3997 | 283.653
308.05 K, 7997 kPa, x2 = 0.8988 | 229.008
308.06 K, 6995 kPa, x2 = 0.8988 | 175.453
308.08 K, 10996 kPa, x2 = 0.3997 | 155.394
308.09 K, 8982 kPa, x2 = 0.8988 | 306.981
308.11 K, 7002 kPa, x2 = 0.6015 | 114.28
308.11 K, 7996 kPa, x2 = 0.2017 | 78.731
308.11 K, 18002 kPa, x2 = 0.8988 | 711.774
308.12 K, 8003 kPa, x2 = 0.6015 | 136.504
308.12 K, 11997 kPa, x2 = 0.7985 | 401.005
308.12 K, 18001 kPa, x2 = 0.2017 | 195.388
308.12 K, 18004 kPa, x2 = 0.0998 | 162.496
308.13 K, 8003 kPa, x2 = 0.3997 | 104.538
308.13 K, 9004 kPa, x2 = 0.2017 | 90.207
308.13 K, 10002 kPa, x2 = 0.2017 | 101.87
308.13 K, 11000 kPa, x2 = 0.0998 | 95.867
308.13 K, 11001 kPa, x2 = 0.6015 | 214.588
308.13 K, 15001 kPa, x2 = 0.7985 | 523.511
308.13 K, 15007 kPa, x2 = 0.6015 | 328.628
308.14 K, 5002 kPa, x2 = 0.2017 | 46.531
308.14 K, 5997 kPa, x2 = 0.6015 | 93.812
308.14 K, 6001 kPa, x2 = 0.3997 | 74.193
308.14 K, 8998 kPa, x2 = 0.6015 | 160.546
308.14 K, 11000 kPa, x2 = 0.2017 | 113.723
308.14 K, 11000 kPa, x2 = 0.7985 | 342.357
308.14 K, 12002 kPa, x2 = 0.6015 | 243.454
308.14 K, 14996 kPa, x2 = 0.3997 | 227.135
308.15 K, 3000 kPa, x2 = 0.0998 | 23.193
308.15 K, 6999 kPa, x2 = 0.0998 | 57.796
308.15 K, 8996 kPa, x2 = 0.3997 | 120.739
308.15 K, 14997 kPa, x2 = 0.0998 | 134.77
308.16 K, 4002 kPa, x2 = 0.2017 | 36.486
308.16 K, 4004 kPa, x2 = 0.6015 | 57.94
308.16 K, 4006 kPa, x2 = 0.7985 | 70.911
308.16 K, 5006 kPa, x2 = 0.3997 | 60.225
308.16 K, 9001 kPa, x2 = 0.7985 | 229.843
308.16 K, 9993 kPa, x2 = 0.8988 | 417.764
308.16 K, 10002 kPa, x2 = 0.6015 | 186.699
308.16 K, 11997 kPa, x2 = 0.0998 | 105.588
308.16 K, 15001 kPa, x2 = 0.2017 | 161.57
308.16 K, 17997 kPa, x2 = 0.3997 | 276.178
308.17 K, 3998 kPa, x2 = 0.0998 | 31.42
308.17 K, 5006 kPa, x2 = 0.7985 | 93.74
308.17 K, 9004 kPa, x2 = 0.0998 | 76.501
308.17 K, 9994 kPa, x2 = 0.3997 | 137.721
308.17 K, 18002 kPa, x2 = 0.7985 | 590.479
308.18 K, 6001 kPa, x2 = 0.2017 | 56.895
308.18 K, 6999 kPa, x2 = 0.2017 | 67.631
308.18 K, 8000 kPa, x2 = 0.7985 | 185.875
308.18 K, 9999 kPa, x2 = 0.0998 | 86.118
308.19 K, 6002 kPa, x2 = 0.0998 | 48.761
308.19 K, 6002 kPa, x2 = 0.7985 | 119.651
308.19 K, 18000 kPa, x2 = 0.6015 | 395.269
308.2 K, 11998 kPa, x2 = 0.2017 | 125.636
308.21 K, 5001 kPa, x2 = 0.0998 | 39.985
308.21 K, 7002 kPa, x2 = 0.7985 | 149.932
308.22 K, 5002 kPa, x2 = 0.8988 | 104.568
308.22 K, 5006 kPa, x2 = 0.6015 | 75.217
308.22 K, 7001 kPa, x2 = 0.3997 | 88.937
308.22 K, 10003 kPa, x2 = 0.7985 | 282.745
308.23 K, 4004 kPa, x2 = 0.8988 | 78.335
308.23 K, 5998 kPa, x2 = 0.8988 | 135.871
308.23 K, 12000 kPa, x2 = 0.3997 | 173.174
308.24 K, 8000 kPa, x2 = 0.0998 | 67.015
308.24 K, 11004 kPa, x2 = 0.8988 | 513.225
308.26 K, 4003 kPa, x2 = 0.3997 | 46.849
308.26 K, 14998 kPa, x2 = 0.8988 | 660.797
308.34 K, 11928 kPa, x2 = 0.8988 | 563.033
